For 37 compounds, IC50 and IC90 results are on record in ChEMBL document CHEMBL4483862, “Open-source discovery of chemical leads for next-generation chemoprotective antimalarials” (2018).

The term IC50 denotes the concentration that gives 50% inhibition. One may read the IC90 as the concentration at which the effect reaches the 90% level.

Some results are limits rather than exact numbers.

The test system of the test is Plasmodium berghei. Briefly: Luciferase/luciferin-expressing antifolate-resistant parasites were used to infect a culture of HepG2 cells that were pre-incubated with compounds. Infected hepatocytes emit light due to the luciferase reaction. Assay results are presented as the percent inhibition of light emission compared to control. […]. The following applies: sporozoite; for IC90: read-out: LUCIFERASE INFECTION ASSAY - IC90. The format is functional.

[1] abbreviates: read-out: LUCIFERASE INFECTION ASSAY - IC50.

As to `COc1ccc(C2NC(=O)NC(c3ccccc3)=C2c2nc3ccccc3s2)cc1OCc1ccccc1` (centres undefined), the IC90 was more than 10 µM. The concentration for half-maximal inhibition (IC50) under setting [1] was 9.63 µM.

Regarding `COc1ccc(CC(N)c2csc(NC(=O)c3cc(C(C)(C)C)nn3Cc3ccccc3)n2)cc1` (centres undefined), the IC90 was 5.64 µM. Besides, the IC50 (HEPG2TOX_HILL_SLOPE 1.31, HEPG2TOX_R_SQUARED 0.716, PBLUC_HILL_SLOPE 7.57, PBLUC_R_SQUARED 0.705, read-out: LUCIFERASE INFECTION ASSAY - IC50) is 4.22 µM.

As to `C/C=C/c1ccc(Oc2nc(C(F)(F)F)nc3ccccc23)c(OC)c1`, the IC90 is 6.79 µM. In addition, under “HEPG2TOX_HILL_SLOPE 2.94, HEPG2TOX_R_SQUARED 0.97, PBLUC_HILL_SLOPE 2.81, PBLUC_R_SQUARED 0.724, read-out: LUCIFERASE INFECTION ASSAY - IC50”, the IC50 is 3.1 µM.

Regarding `CC(=O)c1cccc(-c2cnc3cnc(-c4cccs4)cn23)c1`, the concentration for an effect of 90% (IC90) was 8.52 µM. Also, the 50% inhibitory concentration (IC50) (HEPG2TOX_HILL_SLOPE 0.197, HEPG2TOX_R_SQUARED 0.442, PBLUC_HILL_SLOPE 3.75, PBLUC_R_SQUARED 0.777, read-out: LUCIFERASE INFECTION ASSAY - IC50) was 4.74 µM.

For the compound `N#C/C(C(=O)c1ccc([N+](=O)[O-])s1)=C1\Nc2ccccc2S1`, the IC90 was more than 10 µM. For the same compound, the half-inhibitory concentration (IC50) (HEPG2TOX_HILL_SLOPE 0.276, HEPG2TOX_R_SQUARED 0.471, PBLUC_HILL_SLOPE 0.885, PBLUC_R_SQUARED 0.549, read-out: LUCIFERASE INFECTION ASSAY - IC50) was 0.951 µM.

Regarding `Cc1ccc(C)n1-c1nc2cc(C(=O)NC3CC3)ccc2s1`, the 90% effect concentration (IC90) was found to be 7.33 µM. For the setting “PBLUC_HILL_SLOPE 2.39, PBLUC_R_SQUARED 0.619, read-out: LUCIFERASE INFECTION ASSAY - IC50”, the IC50 was found to be 2.93 µM.

For the compound `CC1(C)CC(=O)C=C(Nc2ccc(Oc3ccccc3)cc2)C1`, the 90% effect concentration (IC90) was more than 10.7 µM. Besides, the IC50 (PBLUC_HILL_SLOPE 1.19, PBLUC_R_SQUARED 0.428, read-out: LUCIFERASE INFECTION ASSAY - IC50) turned out to be 2.19 µM.

As for `C(#Cc1ccc(-c2cc[nH]n2)s1)c1ccccc1`, the IC90 was more than 13.2 µM. Also, for the setting “PBLUC_HILL_SLOPE 0.121, PBLUC_R_SQUARED 0.262, read-out: LUCIFERASE INFECTION ASSAY - IC50”, the IC50 is 0.0465 µM.

Regarding `Cc1sc2nc(-c3cccnc3)nc(NCCNc3ccccn3)c2c1C`, the IC90 was determined as 1.71 µM. For the same compound, under “HEPG2TOX_HILL_SLOPE 1.88, HEPG2TOX_R_SQUARED 0.918, PBLUC_HILL_SLOPE 8.99, PBLUC_R_SQUARED 0.794, read-out: LUCIFERASE INFECTION ASSAY - IC50”, the half-maximal inhibitory concentration (IC50) amounted to 1.34 µM.

`Cc1ccc(-c2cnc(N)c(-c3ccc(C(=O)NCCN(C)C)cc3)c2)cc1`: the IC90 was more than 8.81 µM. In addition, the IC50 under setting [1] was more than 8.81 µM.

Regarding `CC1CCC2(CC1)NC(=O)N(CC(=O)NCC(F)(F)F)C2=O` (centres undefined), the IC90 is more than 10 µM. For the same compound, under setting [1], the IC50 is more than 10 µM.

For `COc1ccccc1NC(=O)c1cc2ccccc2c(CN2CCN(c3ccccc3)CC2)c1O`, the IC90 is more than 10 µM. In addition, the IC50 under setting [1] is more than 10 µM.

On to `Cn1ccc2cc(-c3cnc4cnc(-c5ccc6c(c5)OCO6)cn34)ccc21`, for which the IC90 is 0.0413 µM. The IC50 (HEPG2TOX_HILL_SLOPE 1.26, HEPG2TOX_R_SQUARED 0.912, PBLUC_HILL_SLOPE 10.9, PBLUC_R_SQUARED 0.837, read-out: LUCIFERASE INFECTION ASSAY - IC50) came out at 0.0338 µM.

For `COc1cc(NC(=S)Nc2cccc(OC(F)(F)F)c2)cc(C(F)(F)F)c1`, the IC90 is more than 8.04 µM. Moreover, the IC50 (PBLUC_HILL_SLOPE 0.721, PBLUC_R_SQUARED 0.563, read-out: LUCIFERASE INFECTION ASSAY - IC50) came to 2.34 µM.

Regarding `CN(C)c1ccc(C(=O)N2CCc3nc(NCc4cccc(Oc5ccccc5)c4)ncc3C2)cc1`, the IC90 was more than 6.88 µM. For the same compound, the IC50 (HEPG2TOX_HILL_SLOPE 9.14, HEPG2TOX_R_SQUARED 0.261, read-out: LUCIFERASE INFECTION ASSAY - IC50) is more than 6.88 µM.

Regarding `NS(=O)(=O)c1ccc(Nc2nc(-c3ccc(Cl)s3)cs2)cc1`, the IC90 is more than 10 µM. The IC50 (FFLUC_HILL_SLOPE 0.347, FFLUC_R_SQUARED 0.604, read-out: LUCIFERASE INFECTION ASSAY - IC50) is more than 10 µM.

As for `O=C(Cn1cnc2sc(-c3ccccc3)cc2c1=O)Nc1nc(CN2CCCCC2)cs1`, the IC90 is more than 10 µM. Further, the IC50 under setting [1] is more than 10 µM.

Consider `COCCOc1ccc(C(F)(F)F)cc1NC(=O)COc1ccc2ccc(=O)oc2c1`, for which the IC90 was more than 10 µM. Also, under setting [1], the half-maximal inhibitory concentration (IC50) is more than 10 µM.

Regarding `Cc1ccc(Cl)cc1N1CCN(C(=O)NCc2ccco2)CC1`, the IC90 is more than 10 µM. Besides, for the setting “HEPG2TOX_HILL_SLOPE 1.45, HEPG2TOX_R_SQUARED 0.763, PBLUC_HILL_SLOPE 1.12, PBLUC_R_SQUARED 0.27, read-out: LUCIFERASE INFECTION ASSAY - IC50”, the IC50 came out at 5.99 µM.

Turning to `CCC(C)c1ccc(-c2cc(C(=O)OCC(=O)c3c(N)n(C)c(=O)n(C)c3=O)c3ccccc3n2)cc1` (centres undefined), the IC90 is more than 10 µM. The IC50 (PBLUC_HILL_SLOPE 18.2, PBLUC_R_SQUARED 0.259, read-out: LUCIFERASE INFECTION ASSAY - IC50) turned out to be 9.1 µM.

`CCCCCCn1c(SCC(=O)Nc2sc(C(=O)N(CC)CC)c(C)c2C(=O)OCC)nc2ccccc21`: the IC90 is more than 10 µM. For the same compound, the IC50 under setting [1] was more than 10 µM.

On to `COc1ccc(-c2cnc3cnc(-c4ccc(N5CCN(C)CC5)nc4)cn23)cc1`, for which the IC90 is more than 8.24 µM. The IC50 (PBLUC_HILL_SLOPE 3.44, PBLUC_R_SQUARED 0.167, read-out: LUCIFERASE INFECTION ASSAY - IC50) was 6.29 µM.

`CNCCCNCc1cccc(OC)c1OCc1ccc(Cl)cc1`: the IC90 was more than 9.46 µM. For the same compound, for the setting “PBLUC_HILL_SLOPE 9.3, PBLUC_R_SQUARED 0.597, read-out: LUCIFERASE INFECTION ASSAY - IC50”, the IC50 was determined as 8.76 µM.

With `CC(C)(C)c1cc(-c2cc(C(F)(F)F)[nH]n2)c2c(c1)C(C)(C)CC2`, the IC90 is more than 9.81 µM. The half-maximal inhibitory concentration (IC50) (FFLUC_HILL_SLOPE 11.7, FFLUC_R_SQUARED 0.064, read-out: LUCIFERASE INFECTION ASSAY - IC50) is more than 9.81 µM.

In the case of `O=C(Nc1ncccc1O)c1ccc(-n2cnc3ccccc32)cc1`, the IC90 is 6.03 µM. In addition, the IC50 (PBLUC_HILL_SLOPE 1.70, 2.04, PBLUC_R_SQUARED 0.693, 0.681, read-out: LUCIFERASE INFECTION ASSAY - IC50) stood at 1.8 µM.

For `CCCc1cc(NCCCN2CCOCC2)n2nc(C)c(-c3ccccc3)c2n1`, the 90% effect concentration (IC90) was more than 8.39 µM. Moreover, the half-inhibitory concentration (IC50) under setting [1] is more than 8.39 µM.

Turning to `O=S(=O)(NCCNc1ncnc2ccccc12)c1cccc(Cl)c1`, the IC90 is more than 10 µM. Further, the IC50 (HEPG2TOX_HILL_SLOPE 0.939, HEPG2TOX_R_SQUARED 0.791, read-out: LUCIFERASE INFECTION ASSAY - IC50) is more than 10 µM.

Take `CCOCCCn1c(SCC(=O)Nc2scc(C3CC3)c2C(=O)OCC)nnc1-c1ccc(Cl)cc1`: the IC90 was more than 10 µM. Moreover, under setting [1], the IC50 is more than 10 µM.

For `CCCOc1ccc2cc(C(=O)c3c(C)[nH]c(C)c3C(=O)OCC)oc2c1`, the IC90 is more than 10 µM. For the same compound, the IC50 (HEPG2TOX_HILL_SLOPE 4.85, HEPG2TOX_R_SQUARED 0.69, PBLUC_HILL_SLOPE 11.9, PBLUC_R_SQUARED 0.276, read-out: LUCIFERASE INFECTION ASSAY - IC50) stood at 9.4 µM.

As for `COc1ccc(OC)c(NC(=O)c2cc(-c3cc(Cl)ccc3O)[nH]n2)c1`, the IC90 was more than 8.83 µM. For the same compound, the IC50 (HEPG2TOX_HILL_SLOPE 2.05, HEPG2TOX_R_SQUARED 0.718, PBLUC_HILL_SLOPE 2.04, PBLUC_R_SQUARED 0.622, read-out: LUCIFERASE INFECTION ASSAY - IC50) was 4.02 µM.

In the case of `O=C(CC12CC3CC(CC(C3)C1)C2)Nc1ccc(C(F)(F)F)cc1`, the IC90 is more than 9.78 µM. Moreover, under setting [1], the IC50 is more than 9.78 µM.

Turning to `COc1ccc2c(c1)[nH]c1c(N(C)CCc3ccc(OC)c(OC)c3)ncnc12`, the IC90 is more than 8.41 µM. Also, for the setting “HEPG2TOX_HILL_SLOPE 1.05, HEPG2TOX_R_SQUARED 0.856, PBLUC_HILL_SLOPE 1.55, PBLUC_R_SQUARED 0.53, read-out: LUCIFERASE INFECTION ASSAY - IC50”, the concentration for half-maximal inhibition (IC50) came out at 4.47 µM.

In the case of `O=S(=O)(Oc1cncc(Cl)c1)c1cc(Cl)cc(Cl)c1`, the IC90 is more than 9.75 µM. Further, the IC50 (PBLUC_HILL_SLOPE 1.51, PBLUC_R_SQUARED 0.362, read-out: LUCIFERASE INFECTION ASSAY - IC50) was 8.89 µM.

As to `COc1ccc(Cc2nc(Oc3ccc(C(C)=O)cc3OC)c3c4c(sc3n2)CCC4)cc1OC`, the concentration for an effect of 90% (IC90) was more than 10 µM. Further, for the setting “HEPG2TOX_HILL_SLOPE 23.6, HEPG2TOX_R_SQUARED 0.901, PBLUC_HILL_SLOPE 2.45, PBLUC_R_SQUARED 0.768, read-out: LUCIFERASE INFECTION ASSAY - IC50”, the IC50 turned out to be 4.61 µM.

Turning to `C=CCn1c(SCC(=O)Nc2scc(-c3ccc(C(C)(C)C)cc3)c2C(=O)OCC)nc2sc3c(c2c1=O)CCC3`, the IC90 is more than 10 µM. Moreover, under setting [1], the IC50 was more than 10 µM.

With `COc1ccc(S(=O)(=O)N2CCSc3cc(Cl)ccc32)cc1`, the IC90 was determined as 3.18 µM. For the same compound, the IC50 (HEPG2TOX_HILL_SLOPE 2.85, HEPG2TOX_R_SQUARED 0.925, PBLUC_HILL_SLOPE 20.1, PBLUC_R_SQUARED 0.623, read-out: LUCIFERASE INFECTION ASSAY - IC50) stood at 2.85 µM.

With `COc1ccc(NC(=O)C(OC(=O)c2ccccc2SCC(=O)Nc2c(C)n(C)n(-c3ccccc3)c2=O)c2ccccc2)cc1Cl` (centres undefined), the IC90 is more than 10 µM. Under setting [1], the concentration for half-maximal inhibition (IC50) is more than 10 µM.
